EC50, Emax and inhibition data for five molecules are collected here from US10226448B2, “3-(1H-pyrrolo[3,2-C]pyridin-2-yl)-1H-pyrazolo[3,4-B]pyridines and therapeutic uses thereof” (Samumed, LLC, priority 2015, dated 2019).

What all share (assay type): cell-based
Test [1] has as its system LL29 cells (primary human fibroblasts derived from IPF patients), α-smooth muscle actin. As to the kind of experiment: Inhibition of the fibrotic process: αSMA staining in TGF-β1 treated primary human fibroblasts from IPF patients (LL29 cells). Particulars: Fibroblast; for EC50: 96 h, LL29 cells, TGF-β1 20 ng/mL, 4 days, % αSMA positive cells. The gist of the method:
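Read-out after 4-day incubation: αSMA staining with 1 μM SYTOX green nuclear counterstain (30 min, room temperature). Cells were LL29 primary fibroblasts from IPF patients, in 1% FBS F12, exposed to TGF-β1 with test compound, referenced to TGF-β1/DMSO control wells.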

For the next test, the system named is SW480 colon cancer cells. As to the kind of experiment: Cell viability assay (CellTiter-Blue) in SW480 colon cancer cells. Conditions: Homo sapiens; for EC50: 96 h, SW480 cell viability, four days, CellTiter-Blue. The gist of the method:
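Fluorescence from resazurin reduced to resorufin by metabolically active cells was the read-out, taken after ~3 h with CellTiter-Blue.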

The next test deals with IL-6 in THP-1 cells. Description: IL-6 inhibition in LPS-stimulated THP-1 human monocyte cells (HTRF). Conditions: for EC50: IL-6 inhibition, LPS-stimulated THP-1 cells, HTRF, 10-point dose-response starting from 10 μM; for inhibition at 10 µM: THP-1, read-out: percentage in parentheses beside EC50 >10. The gist of the method: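 THP-1 cells were serum-reduced (1% FBS, 24 h), plated at 5000 cells/well with compound for 2 h at 37 °C, then stimulated 22 h with 500 ng/mL LPS. Secreted IL-6 was quantified by HTRF (665/620 nm ratio). Signals were normalised to DMSO, and EC50 was fitted by four-parameter nonlinear regression.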

Test [2] has as its system primary human mesenchymal stem cells (hMSCs). Description: Induction of chondrogenesis in primary human mesenchymal stem cells (chondrogenic nodules, Rhodamine B / Nile Red). Conditions: 6 days; for EC50: concentration required to induce 50% levels of chondrogenesis vs TGF-β3, read-out: Conc (nM) of 50% TGF-β3 activity; for Emax: relative to TGF-β3 (10 ng/mL) positive control, read-out: Max. Activity as % TGF-β3 activity. In a few lines:
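Primary hMSCs at passage 3–6 were fixed with 4% formaldehyde and stained with 2 μg/mL Rhodamine B plus 20 μM Nile Red to image chondrogenic nodules. Nodule counts normalized to the mean of 3 DMSO wells (fold change), averaged over 3 replicate wells per concentration. TGF-β3 served as positive control; EC50, maximum activity and the dose giving maximum are reported.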

For test [3], the system named is Wnt activity (Sp5-Luc reporter, TCF/LEF binding sites) in SW480 colon carcinoma cells. Description: Wnt activity screening assay: Sp5-Luc reporter gene assay in SW480 cells. Conditions: Homo sapiens; Sp5-Luc reporter, SW480 cells, overnight incubation. The gist of the method:
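SW480 cells stably carrying a luciferase reporter under a human Sp5 promoter with eight TCF/LEF sites, plated at 4,000 cells/well in 1% FBS medium. Luminescence read with BrightGlo, normalized to DMSO-treated cells; EC50 from four-parameter variable-slope nonlinear regression.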

Take `Nc1cncc(-c2cnc3[nH]nc(-c4cc5c(-c6ccccc6F)nccc5[nH]4)c3c2)c1` [Compound 59, 5-(3-(4-(2-Fluorophenyl)-1H-pyrrolo[3,2-c]pyridin-2-yl)-1H-pyrazolo[3,4-b]pyridin-5-yl)pyridin-3-amine]: the EC50 is 2280 nM in test [1]; 762 nM in the test with SW480 colon cancer cells; 198 nM with IL-6 in THP-1 cells; 30 nM in test [2]; 197 nM in test [3]. The Emax in test [2] was 86%.

`CC(C)Nc1cncc(-c2cnc3[nH]nc(-c4cc5c(-c6cc(F)cc(CNS(C)(=O)=O)c6)nccc5[nH]4)c3c2)c1` [Compound 488, N-(3-Fluoro-5-(2-(5-(5-(isopropylamino)pyridin-3-yl)-1H-pyrazolo[3,4-b]pyridin-3-yl)-1H-pyrrolo[3,2-c]pyridin-4-yl)benzyl)methanesulfonamide]: the EC50 in test [1] was 860 nM; in the test on SW480 colon cancer cells it was 1340 nM; in the test with IL-6 in THP-1 cells, more than 10000 nM; in test [2], 100 nM; in test [3], 486 nM. For the same molecule, the inhibition at 10 µM with IL-6 in THP-1 cells was found to be 54.6%. Further, the Emax in test [2] amounted to 66%.

On to `CN(C)c1cncc(-c2cnc3[nH]nc(-c4cc5cnccc5[nH]4)c3c2)c1` [Compound 259, 5-(3-(1H-Pyrrolo[3,2-c]pyridin-2-yl)-1H-pyrazolo[3,4-b]pyridin-5-yl)-N,N-dimethylpyridin-3-amine], for which the EC50 in test [1] is 1430 nM; in the test on SW480 colon cancer cells, 1630 nM; in the test on IL-6 in THP-1 cells, more than 10000 nM; in test [2] it was 10 nM; in test [3], 3760 nM. The inhibition at 10 µM with IL-6 in THP-1 cells was 20.1%. For the same molecule, the Emax in test [2] worked out at 80%.

Take `CS(=O)(=O)NCc1cc(F)cc(-c2nccc3[nH]c(-c4n[nH]c5ncc(-c6cncc(NC(=O)C7CCCCC7)c6)cc45)cc23)c1` [Compound 499, N-(5-(3-(4-(3-Fluoro-5-(methylsulfonamidomethyl)phenyl)-1H-pyrrolo[3,2-c]pyridin-2-yl)-1H-pyrazolo[3,4-b]pyridin-5-yl)pyridin-3-yl)cyclohexane carboxamide]: the EC50 in test [1] was more than 10000 nM; in the test with SW480 colon cancer cells it was more than 10000 nM; in the test on IL-6 in THP-1 cells, 3750 nM; in test [3], 3630 nM. For the same molecule, the inhibition at 10 µM in test [1] (read-out: percent inhibition at 10 μM) was determined as 23.6%; in the test on SW480 colon cancer cells (SW480, read-out: percent inhibition at 10 μM) it was 35.5%. For the same molecule, in test [2], the Emax came to 120%.

For `CC(C)(C)CC(=O)Nc1cncc(-c2cnc3[nH]nc(-c4cc5cnccc5[nH]4)c3c2)c1` [Compound 268, N-(5-(3-(1H-Pyrrolo[3,2-c]pyridin-2-yl)-1H-pyrazolo[3,4-b]pyridin-5-yl)pyridin-3-yl)-3,3-dimethylbutanamide], the EC50 in test [1] came out at 3350 nM; in the test with SW480 colon cancer cells it was 1100 nM; in the test with IL-6 in THP-1 cells, 683 nM; in test [3] it was 605 nM. Moreover, the Emax in test [2] worked out at 7%.
